Measurements taken from ChEMBL document CHEMBL5465560, “Selectivity Literature for EUbOPEN Chemogenomic Library” (2024).
One block for each compound: values may come before it.

Columns and labels:
[1] = target: T1, Membrane-associated tyrosine- and threonine-specific cdc2-inhibitory kinase (Homo sapiens) (UniProt Q99640); conditions: at 10 µM
T1 sequence (whole entry): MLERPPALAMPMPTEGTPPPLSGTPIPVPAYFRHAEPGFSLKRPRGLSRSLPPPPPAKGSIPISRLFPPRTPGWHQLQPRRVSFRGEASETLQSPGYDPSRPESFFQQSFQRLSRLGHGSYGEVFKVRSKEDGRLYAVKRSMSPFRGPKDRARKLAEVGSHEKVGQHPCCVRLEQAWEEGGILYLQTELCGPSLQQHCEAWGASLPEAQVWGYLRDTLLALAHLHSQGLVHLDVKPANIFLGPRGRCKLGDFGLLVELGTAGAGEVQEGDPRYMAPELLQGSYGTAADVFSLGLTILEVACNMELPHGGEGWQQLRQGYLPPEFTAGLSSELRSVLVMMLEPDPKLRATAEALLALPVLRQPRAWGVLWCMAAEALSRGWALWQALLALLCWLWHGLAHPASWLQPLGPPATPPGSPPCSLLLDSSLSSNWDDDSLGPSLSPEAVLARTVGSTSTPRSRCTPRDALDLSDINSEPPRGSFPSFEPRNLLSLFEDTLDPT

[2] = target: Myosin-IIIa (Homo sapiens) (UniProt Q8NEV4); assay: Selectivity interaction (KinomeScan (DiscoverX)) EUB0000655a MYO3A; conditions: at 10 µM
[3] = target: Calcium/calmodulin-dependent protein kinase type 1G (Homo sapiens) (UniProt Q96NX5); assay: Selectivity interaction (KinomeScan (DiscoverX)) EUB0001079a CAMK1G; conditions: at 1 µM
[4] = target: T2, Dual specificity mitogen-activated protein kinase kinase 6 (Homo sapiens) (UniProt P52564); assay: Selectivity interaction (ActivX KiNativ screen (ex vivo kinase selectivity in human PBMCs)) EUB0001619a MAP2K6; format: cell-based; conditions: PBMC, at 1 µM
T2 sequence (whole entry): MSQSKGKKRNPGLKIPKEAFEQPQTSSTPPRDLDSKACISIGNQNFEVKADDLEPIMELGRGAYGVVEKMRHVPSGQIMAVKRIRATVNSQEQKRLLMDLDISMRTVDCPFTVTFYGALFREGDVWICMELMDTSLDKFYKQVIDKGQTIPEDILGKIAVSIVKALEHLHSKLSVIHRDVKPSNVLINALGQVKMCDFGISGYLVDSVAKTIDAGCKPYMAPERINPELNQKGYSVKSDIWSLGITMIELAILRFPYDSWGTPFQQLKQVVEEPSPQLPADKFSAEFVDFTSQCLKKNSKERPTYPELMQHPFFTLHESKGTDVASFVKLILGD

[5] = target: T3, Tyrosine-protein kinase ZAP-70 (Homo sapiens) (UniProt P43403); assay: Selectivity interaction (ActivX KiNativ screen (ex vivo kinase selectivity in human PBMCs)) EUB0001619a ZAP70; format: cell-based; conditions: PBMC, at 1 µM
T3 sequence (whole entry): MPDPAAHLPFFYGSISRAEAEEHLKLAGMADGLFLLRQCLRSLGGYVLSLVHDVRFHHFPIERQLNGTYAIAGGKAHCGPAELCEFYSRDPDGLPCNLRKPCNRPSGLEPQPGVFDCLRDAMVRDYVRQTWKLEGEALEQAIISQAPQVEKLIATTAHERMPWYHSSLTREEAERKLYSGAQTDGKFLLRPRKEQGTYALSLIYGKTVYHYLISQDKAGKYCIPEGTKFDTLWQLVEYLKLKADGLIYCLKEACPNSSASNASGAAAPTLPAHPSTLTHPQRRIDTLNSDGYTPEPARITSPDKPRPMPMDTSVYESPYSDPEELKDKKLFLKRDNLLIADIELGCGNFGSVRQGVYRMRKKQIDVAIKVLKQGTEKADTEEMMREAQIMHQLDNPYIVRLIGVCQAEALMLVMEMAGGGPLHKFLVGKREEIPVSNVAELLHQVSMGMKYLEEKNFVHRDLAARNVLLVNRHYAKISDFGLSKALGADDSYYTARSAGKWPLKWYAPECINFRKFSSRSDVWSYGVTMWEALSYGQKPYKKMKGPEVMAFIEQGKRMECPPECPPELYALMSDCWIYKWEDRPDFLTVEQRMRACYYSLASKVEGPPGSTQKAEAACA

[6] = target: Casein kinase I isoform alpha (Homo sapiens, UniProt P48729); assay: Selectivity interaction (ActivX KiNativ screen (kinase selectivity in THP-1 cell lysates)) EUB0000639a CSNK1A1; format: subcellular; conditions: lysate, at 0.01 µM
[7] = target: T4, Ephrin type-A receptor 8 (Homo sapiens) (UniProt P29322); assay: Selectivity interaction (Kinase panel (Invitrogen)) EUB0000639a EPHA8; conditions: at 200 nM
T4 sequence (whole entry): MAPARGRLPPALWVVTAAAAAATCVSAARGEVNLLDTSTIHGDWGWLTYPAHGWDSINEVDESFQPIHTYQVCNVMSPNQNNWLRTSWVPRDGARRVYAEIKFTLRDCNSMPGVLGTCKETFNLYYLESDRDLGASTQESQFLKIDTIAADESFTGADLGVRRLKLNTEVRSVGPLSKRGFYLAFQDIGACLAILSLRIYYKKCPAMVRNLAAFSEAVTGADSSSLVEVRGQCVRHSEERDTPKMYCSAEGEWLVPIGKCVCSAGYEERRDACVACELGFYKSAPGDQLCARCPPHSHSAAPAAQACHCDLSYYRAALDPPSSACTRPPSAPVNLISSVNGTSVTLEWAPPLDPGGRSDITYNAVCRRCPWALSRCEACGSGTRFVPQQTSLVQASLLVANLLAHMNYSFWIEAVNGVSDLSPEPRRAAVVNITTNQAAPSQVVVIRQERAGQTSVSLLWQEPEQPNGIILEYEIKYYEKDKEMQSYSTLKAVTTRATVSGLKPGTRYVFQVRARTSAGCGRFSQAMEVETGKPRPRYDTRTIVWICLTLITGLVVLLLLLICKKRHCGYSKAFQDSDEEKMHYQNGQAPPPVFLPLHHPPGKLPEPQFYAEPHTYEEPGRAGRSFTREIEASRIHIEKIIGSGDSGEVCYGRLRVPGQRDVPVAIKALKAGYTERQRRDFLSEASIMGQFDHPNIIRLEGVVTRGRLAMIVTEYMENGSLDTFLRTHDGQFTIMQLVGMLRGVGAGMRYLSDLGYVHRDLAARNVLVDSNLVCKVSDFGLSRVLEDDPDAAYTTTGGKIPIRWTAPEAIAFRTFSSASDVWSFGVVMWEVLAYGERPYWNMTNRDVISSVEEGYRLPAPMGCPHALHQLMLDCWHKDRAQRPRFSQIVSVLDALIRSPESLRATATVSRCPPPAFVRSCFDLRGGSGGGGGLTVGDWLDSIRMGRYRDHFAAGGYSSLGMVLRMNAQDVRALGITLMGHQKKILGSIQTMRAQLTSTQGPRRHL

[8] = target: 5-hydroxytryptamine receptor 1B (Homo sapiens) (UniProt P28222); assay: Selectivity interaction (Safety Panel 44tm (Eurofins)) EUB0000162b HTR1B; conditions: at 10 µM
[9] = target: Tyrosine-protein kinase ITK/TSK (Homo sapiens, UniProt Q08881); assay: Selectivity interaction (Kinase counterscreening (biochemical assay)) EUB0000604a ITK
Chain of Tyrosine-protein kinase ITK/TSK (Q08881 whole entry): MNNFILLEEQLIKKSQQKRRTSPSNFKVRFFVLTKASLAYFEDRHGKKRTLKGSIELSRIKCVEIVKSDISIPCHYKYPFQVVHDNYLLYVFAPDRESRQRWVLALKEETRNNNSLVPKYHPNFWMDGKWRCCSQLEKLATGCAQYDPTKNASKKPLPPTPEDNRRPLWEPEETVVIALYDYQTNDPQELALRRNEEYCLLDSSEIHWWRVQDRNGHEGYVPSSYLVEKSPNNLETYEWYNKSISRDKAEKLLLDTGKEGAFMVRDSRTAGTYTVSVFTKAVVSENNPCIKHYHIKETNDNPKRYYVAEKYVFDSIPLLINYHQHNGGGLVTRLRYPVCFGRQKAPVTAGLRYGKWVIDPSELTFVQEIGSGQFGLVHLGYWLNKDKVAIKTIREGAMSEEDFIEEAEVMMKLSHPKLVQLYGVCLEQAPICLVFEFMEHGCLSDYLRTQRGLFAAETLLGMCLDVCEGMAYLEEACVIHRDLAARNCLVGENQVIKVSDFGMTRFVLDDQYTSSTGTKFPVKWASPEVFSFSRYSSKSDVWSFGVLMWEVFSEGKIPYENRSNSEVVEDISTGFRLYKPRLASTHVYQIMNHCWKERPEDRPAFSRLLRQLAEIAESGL

Chain of Calcium/calmodulin-dependent protein kinase type 1G (Homo sapiens) (Q96NX5 whole entry): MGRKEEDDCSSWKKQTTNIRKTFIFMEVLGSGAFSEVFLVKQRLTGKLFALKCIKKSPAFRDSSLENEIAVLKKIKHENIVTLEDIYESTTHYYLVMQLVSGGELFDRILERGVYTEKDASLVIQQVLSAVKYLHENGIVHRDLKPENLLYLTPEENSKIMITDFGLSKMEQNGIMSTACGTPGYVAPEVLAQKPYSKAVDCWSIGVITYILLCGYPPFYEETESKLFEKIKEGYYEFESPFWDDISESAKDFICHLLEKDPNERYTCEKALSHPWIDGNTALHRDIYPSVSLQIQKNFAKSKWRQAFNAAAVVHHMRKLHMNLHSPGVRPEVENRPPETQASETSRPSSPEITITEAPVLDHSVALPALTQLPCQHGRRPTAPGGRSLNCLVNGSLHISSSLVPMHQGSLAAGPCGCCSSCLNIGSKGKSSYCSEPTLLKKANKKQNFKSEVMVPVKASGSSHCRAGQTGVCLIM
Chain of Casein kinase I isoform alpha (P48729 2-337 limits assumed): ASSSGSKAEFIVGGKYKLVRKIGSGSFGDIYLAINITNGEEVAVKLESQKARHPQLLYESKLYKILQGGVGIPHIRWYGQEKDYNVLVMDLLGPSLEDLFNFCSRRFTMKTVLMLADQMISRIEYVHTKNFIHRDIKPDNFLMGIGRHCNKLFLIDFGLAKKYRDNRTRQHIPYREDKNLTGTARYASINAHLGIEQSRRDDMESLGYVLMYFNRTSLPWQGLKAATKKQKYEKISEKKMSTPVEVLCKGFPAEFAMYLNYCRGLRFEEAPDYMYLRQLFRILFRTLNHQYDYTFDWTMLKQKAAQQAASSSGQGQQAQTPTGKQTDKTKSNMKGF
Chain of 5-hydroxytryptamine receptor 1B (Homo sapiens) (P28222 whole entry): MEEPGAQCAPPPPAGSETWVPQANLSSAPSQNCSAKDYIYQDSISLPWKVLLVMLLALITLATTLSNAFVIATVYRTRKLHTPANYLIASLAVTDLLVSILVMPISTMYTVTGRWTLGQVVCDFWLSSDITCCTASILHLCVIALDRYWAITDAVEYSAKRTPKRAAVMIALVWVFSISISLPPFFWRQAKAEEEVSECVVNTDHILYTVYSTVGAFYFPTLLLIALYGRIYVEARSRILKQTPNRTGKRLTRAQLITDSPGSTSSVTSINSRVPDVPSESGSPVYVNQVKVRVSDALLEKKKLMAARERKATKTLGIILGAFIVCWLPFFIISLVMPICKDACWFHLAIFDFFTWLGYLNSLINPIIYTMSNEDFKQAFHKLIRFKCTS
Chain of Myosin-IIIa (Homo sapiens) (Q8NEV4 whole entry): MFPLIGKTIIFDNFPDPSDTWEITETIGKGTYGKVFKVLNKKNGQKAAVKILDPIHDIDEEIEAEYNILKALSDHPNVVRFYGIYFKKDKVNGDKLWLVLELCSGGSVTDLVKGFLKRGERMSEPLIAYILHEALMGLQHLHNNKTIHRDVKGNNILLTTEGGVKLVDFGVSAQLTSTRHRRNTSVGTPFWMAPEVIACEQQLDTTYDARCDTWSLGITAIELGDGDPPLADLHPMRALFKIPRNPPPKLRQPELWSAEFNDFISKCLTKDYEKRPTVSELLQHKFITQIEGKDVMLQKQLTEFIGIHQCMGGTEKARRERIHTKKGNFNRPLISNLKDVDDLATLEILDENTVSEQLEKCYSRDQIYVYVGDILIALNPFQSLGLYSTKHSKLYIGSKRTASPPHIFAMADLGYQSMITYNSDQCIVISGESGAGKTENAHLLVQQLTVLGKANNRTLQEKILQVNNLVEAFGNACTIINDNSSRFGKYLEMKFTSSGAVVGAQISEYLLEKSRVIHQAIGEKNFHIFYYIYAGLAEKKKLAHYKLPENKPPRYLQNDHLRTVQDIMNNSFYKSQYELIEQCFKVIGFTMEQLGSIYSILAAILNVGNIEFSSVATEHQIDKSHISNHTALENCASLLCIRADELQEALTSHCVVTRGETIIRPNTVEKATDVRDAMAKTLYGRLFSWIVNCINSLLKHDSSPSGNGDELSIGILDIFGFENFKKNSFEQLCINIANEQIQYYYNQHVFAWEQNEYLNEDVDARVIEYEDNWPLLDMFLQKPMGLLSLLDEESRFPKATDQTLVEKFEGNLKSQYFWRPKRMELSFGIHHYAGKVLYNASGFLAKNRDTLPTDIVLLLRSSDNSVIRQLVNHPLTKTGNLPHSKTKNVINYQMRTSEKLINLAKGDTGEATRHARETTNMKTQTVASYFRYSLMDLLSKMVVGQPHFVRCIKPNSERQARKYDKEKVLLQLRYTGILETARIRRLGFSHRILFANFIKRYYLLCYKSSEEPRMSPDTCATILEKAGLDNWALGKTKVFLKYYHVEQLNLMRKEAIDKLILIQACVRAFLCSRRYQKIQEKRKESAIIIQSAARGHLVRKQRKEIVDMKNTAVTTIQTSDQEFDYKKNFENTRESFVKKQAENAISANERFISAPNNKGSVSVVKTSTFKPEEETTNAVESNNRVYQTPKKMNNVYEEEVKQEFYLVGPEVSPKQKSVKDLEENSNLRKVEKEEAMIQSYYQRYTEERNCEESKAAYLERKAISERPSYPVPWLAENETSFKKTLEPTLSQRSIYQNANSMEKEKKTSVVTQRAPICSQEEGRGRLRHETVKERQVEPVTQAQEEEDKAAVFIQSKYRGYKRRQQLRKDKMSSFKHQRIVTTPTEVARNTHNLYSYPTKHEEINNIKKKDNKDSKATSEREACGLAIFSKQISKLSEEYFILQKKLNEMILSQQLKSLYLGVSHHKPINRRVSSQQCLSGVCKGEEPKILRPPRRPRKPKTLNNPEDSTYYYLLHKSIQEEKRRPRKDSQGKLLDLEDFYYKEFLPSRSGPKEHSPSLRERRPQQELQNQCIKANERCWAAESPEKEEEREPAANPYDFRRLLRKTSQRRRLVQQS

- % of control [1]: 100%
Compound: CCN(CC)CCCCNc1ncc2cc(-c3cc(OC)cc(OC)c3)c(NC(=O)NC(C)(C)C)nc2n1

Compound: CN(C)CCOc1ccc(-c2nc(-c3ccncc3)c(-c3ccc4c(c3)CC/C4=N\O)[nH]2)cc1
- % of control [2]: 94%

Compound: Nc1cnc(N2CCc3cc(S(=O)(=O)Nc4c(F)cc(Cl)cc4F)cc(N4CCCC4=O)c32)nc1 [TP-020n]
- % of control [3]: 100%

Compound: N#Cc1cccc(-c2c[nH]c3ncnc(N4CCOCC4)c23)c1
- % of inhibition [4]: 9%
- % of inhibition [5]: -33%

- % of inhibition [6]: 2.1%
- % of inhibition [7]: -0.726%
Compound: CC[C@@H]1[C@H](F)C(=O)N[C@@H]1COc1nccc2cc(C(N)=O)c(OC)cc12 [ZIMLOVISERTIB]

Compound: CN(C)C(=O)Cn1cc(-c2ccc(-c3cncc4ccccc34)cc2)cn1
- % of control [8]: 53%

Compound: Cc1cnc(Nc2ccc(F)cc2Cl)nc1-c1c[nH]c(C(=O)N[C@H](CO)c2cccc(Cl)c2)c1
- Ki [9]: > 4 µM
